The results in this text go back to ChEMBL document CHEMBL3227969, “Synthesis and biological activity of 8-oxadihydropteridines” (J Med Chem, 1979).

The target of one data set is T1, Dihydrofolate reductase (Homo sapiens, UniProt P00374).
T1 sequence (P00374 whole entry): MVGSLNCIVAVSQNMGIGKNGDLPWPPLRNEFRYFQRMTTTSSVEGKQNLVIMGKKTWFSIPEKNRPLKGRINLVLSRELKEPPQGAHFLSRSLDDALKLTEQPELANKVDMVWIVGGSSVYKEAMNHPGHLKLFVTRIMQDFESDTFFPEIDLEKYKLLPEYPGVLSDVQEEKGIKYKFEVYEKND
Nature of the data set: Inhibition of dihydrofolate reductase (unknown origin) using dihydrofolic acid as substrate by spectrophotometry.

Data set [1] has as its system Enterococcus faecalis. Briefly: Antibacterial activity against Streptococcus faecalis ATCC 8043. Type of data set: organism-based.
The subject of data set [2] is Enterococcus faecalis. Nature of the data set: Antibacterial activity against Streptococcus faecalis ATCC 8043 at 1 ug/ml. Type of data set: organism-based.

As usually defined, the IC50 is the concentration needed to halve the response being measured. A higher IC50 goes with lower potency. The compound `CC1=Nc2c(O)nc(N)nc2OC1C` (configuration not stated) displayed an IC50 against Dihydrofolate reductase of 377 µM. The Activity result in the data set with Enterococcus faecalis [1] was “Toxic”.

`Nc1nc(O)c2c(n1)OC(c1ccccc1)C(c1ccccc1)=N2` (configuration not stated): in the data set with Enterococcus faecalis [1], the Activity result is listed as “Toxic”.

`CC1Oc2nc(N)nc(O)c2N=C1c1ccccc1` (configuration not stated): the Activity result in the data set on Enterococcus faecalis [1] is listed as “Toxic”.

For `CC1=Nc2c(O)nc(N)nc2OC1c1ccccc1` (configuration not stated), the midpoint of inhibition against Dihydrofolate reductase, the IC50, lay at 740 µM. Moreover, the Activity result in the data set on Enterococcus faecalis [1] is given as “Toxic”.

As to `Nc1nc(O)c2c(n1)OCC(c1ccccc1)=N2`, at Dihydrofolate reductase, the IC50 is 57 µM. Further, the Activity entry in the data set on Enterococcus faecalis [1] was “Toxic”.

Turning to `CC1=Nc2c(O)nc(N)nc2OC1`, the IC50 on Dihydrofolate reductase came out at 242 µM. For the same compound, in the data set on Enterococcus faecalis [1], the Activity entry is on record as “Toxic”.

As to `Nc1nc(O)c2c(n1)OCC(Cc1ccccc1)=N2`, the Activity result in the data set with Enterococcus faecalis [1] is given as “Toxic”.

For `Nc1nc(O)c2c(n1)OCC(CCc1ccccc1)=N2`, in the data set with Enterococcus faecalis [1], the Activity entry is on record as “Toxic”.

Consider `Nc1nc(O)c2c(n1)OCC(CCCc1ccccc1)=N2`, for which the Activity entry in the data set with Enterococcus faecalis [1] was “Toxic”.

Turning to `Nc1nc(O)c2c(n1)OCC(CCCCc1ccccc1)=N2`, in the data set on Enterococcus faecalis [1], the Activity result was “Toxic”.

`CCCCCC1=Nc2c(O)nc(N)nc2OC1`: at Dihydrofolate reductase, inhibition was half-maximal at 11 µM (IC50). Moreover, the Activity result in the data set with Enterococcus faecalis [1] was “Toxic”.

Compound `CC1=Nc2c(N)nc(N)nc2OC1C` (configuration not stated) came in with an IC50 against Dihydrofolate reductase of 903 µM. For the same compound, the Activity result in the data set on Enterococcus faecalis [1] is on record as “Toxic”.

Regarding `Nc1nc(N)c2c(n1)OC(c1ccccc1)C(c1ccccc1)=N2` (configuration not stated), the Activity result in the data set with Enterococcus faecalis [1] is on record as “Toxic”.

On Dihydrofolate reductase, `Nc1nc(N)c2c(n1)OCC(c1ccccc1)=N2` gave an IC50 of 168 µM. Also, the Activity entry in the data set with Enterococcus faecalis [1] is “Toxic”.

Take `CN(Cc1cnc2nc(N)nc(N)c2n1)c1ccc(C(=O)N[C@@H](CCC(=O)O)C(=O)O)cc1` [METHOTREXATE]: the Activity result with Enterococcus faecalis [2] is “Toxic”.
